Several values for one entry are separate records, joined by “and”; a condition that tells them apart may be missing. Equal values may be shown once.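 48-hour exposure; five concentrations; linearly interpolated endpoints. Abbreviation: GI50, concentration required for 50% inhibition of growth. Definition used: TGI = concentration required for complete inhibition of growth.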
Columns and labels:
Assay in all cases: NCI tumour cell line growth inhibition, 48 h
SK-MEL-5 melanoma = system: SK-MEL-5 melanoma
MCF7 breast = system: MCF7 breast
NCI/ADR-RES ovarian = system: NCI/ADR-RES ovarian
BT-549 breast = system: BT-549 breast
SK-MEL-28 melanoma = system: SK-MEL-28 melanoma
OVCAR-8 ovarian = system: OVCAR-8 ovarian
HS 578T breast = system: HS 578T breast
SF-295 CNS = system: SF-295 CNS
OVCAR-4 ovarian = system: OVCAR-4 ovarian
NCI-H226 lung = system: NCI-H226 lung
SNB-75 CNS = system: SNB-75 CNS
MOLT-4 leukemia = system: MOLT-4 leukemia
KM20L2 colon = system: KM20L2 colon

SMILES	TGI (SK-MEL-5 melanoma) [µM]	TGI (MCF7 breast) [µM]	TGI (NCI/ADR-RES ovarian) [µM]	TGI (BT-549 breast) [µM]	TGI (SK-MEL-28 melanoma) [µM]	TGI (OVCAR-8 ovarian) [µM]	TGI (HS 578T breast) [µM]	TGI (SF-295 CNS) [µM]	TGI (OVCAR-4 ovarian) [µM]	TGI (NCI-H226 lung)	TGI (SNB-75 CNS) [µM]	TGI (MOLT-4 leukemia) [µM]	TGI (KM20L2 colon)	GI50 (SK-MEL-5 melanoma) [µM]	GI50 (SK-MEL-28 melanoma) [µM]	GI50 (OVCAR-8 ovarian) [µM]	GI50 (KM20L2 colon) [µM]	GI50 (OVCAR-4 ovarian) [µM]	GI50 (NCI-H226 lung) [µM]	GI50 (MOLT-4 leukemia) [µM]
CCn1c2ccccc2c2cc(NC(=O)c3c(C)[nH]c(=O)[nH]c3=S)ccc21	> 100	> 100	> 100	> 100	> 100	> 100	> 100	> 100	> 100	> 100 µM	> 100	> 100								
COc1cccc(C2c3cc4c(cc3OC(N3CCOCC3)C2C)OCO4)c1 (stereo unspecified)	15.6	46.4	> 100	22.4		> 100	60.1	35.7	61	43.4 µM	> 100	17.6								
COc1cccc2c1C(=O)c1c(O)c3c(c(O)c1C2=O)C[C@](O)(C(=O)CO)CC3OC1CC(N)C(OC2CCCCO2)C(C)O1 (stereo partly specified)	1.34	12.1	41.8		3.38	14		0.672	4.2	0.434 µM	1.18	0.0342	4.84 µM							
CCC[CH2][Ge]([CH2]CCC)([CH2]CCC)[O]C(=O)CCl	3.36				23.6	22			21.5	31.5 µM		29.9	23.5 µM	0.305	11.5	5.19	2.95	2.76	14.1	0.856
O=C1/C(=C/c2ccc(Cl)c(Cl)c2)CN(C(=O)CCN2CCOCC2)C/C1=C\c1ccc(Cl)c(Cl)c1		0.159		0.0487			> 10			4.55 µM and 4.15 µM			2.79 µM and 4.01 µM				1.82	1.56		0.196

Reference: PubChem BioAssay (NCI)
